# Source: US9695155B2, “Herbicidal substituted pyrimidinyloxy benzene compounds” (E. I. DU PONT DE NEMOURS AND COMPANY, priority 2013, dated 2017)
# Tests used:
# bermudagrass = test: Test C postemergence; type: in vivo, Cynodon dactylon; settings: for Plant response rating (0 to 100), Bermudagrass: postemergence; for Plant response rating, Bermudagrass: Postemergence, scale 0 to 100 (0 no effect, 100 complete control)
# Description: (§1) Seeds of plant species selected from blackgrass (Alopecurus myosuroides), Italian ryegrass (Lolium multiflorum), wheat, winter (winter wheat, Triticum aestivum), galium (catchweed bedstraw, Galium aparine), corn (Zea mays), large (Lg) crabgrass (Digitaria sanguinalis), giant foxtail (Setaria faberii), johnsongrass (Sorghum halepense), lambsquarters (Chenopodium album), morningglory (Ipomoea coccinea), yellow nutsedge (Cyperus esculentus), pigweed (Amaranthus retroflexus), ragweed (common ragweed, Ambrosia elatior), soybean (Glycine max), barnyardgrass (Echinochloa crus-galli), oilseed rape (Brassica napus), waterhemp (common waterhemp, Amaranthus rudis), kochia (Kochia scoparia), wild oat (Avena fatua), surinam grass (Brachiaria decumbens), foxtail, green (green foxtail, Setaria viridis), goosegrass (Eleusine indica), bromegrass, downy (downy bromegrass, Bromus tectorum), nightshade (eastern black nightshade, Solanum ptycanthum), cocklebur (common cocklebur, Xanthium strumarium), cupgrass, woolly (woolly cupgrass, Eriochloa villosa), bermudagrass (Cynodon dactylon), sunflower, (common oilseed sunflower, Helianthus annuus), Russian thistle (Salsola kali), and velvetleaf (Abutilon theophrasti) were planted into a blend of loam soil and sand and treated preemergence with test chemicals formulated in a non-phytotoxic solvent mixture which included a surfactant.
# (§2) At the same time, plants selected from these crop and weed species and also barley, winter (winter barley, Hordeum vulgare), windgrass (Apera spica-venti), chickweed (common chickweed, Stellaria media), deadnettle (henbit deadnettle, Lamium amplexicaule), and canarygrass (littleseed canarygrass, Phalaris minor) were planted in pots containing Redi-Earth® planting medium (Scotts Company, 14111 Scottslawn Road, Marysville, Ohio 43041) comprising spaghnum peat moss, vermiculite, wetting agent and starter nutrients and treated with postemergence applications of test chemicals formulated in the same manner. Plants ranged in height from 2 to 18 cm (1- to 4-leaf stage) for postemergence treatments. Treated plants and controls were maintained in a greenhouse for 13 to 15 days, after which time all species were compared to controls and visually evaluated. Plant response ratings, summarized in Table C, are based on a scale of 0 to 100 where 0 is no effect and 100 is complete control. A dash (-) response means no test result.
# cupgrass, woolly = test: Test C postemergence; type: in vivo, Eriochloa villosa; settings: for Plant response rating (0 to 100), Cupgrass, Woolly: postemergence; for Plant response rating, Cupgrass, Woolly: Postemergence, scale 0 to 100 (0 no effect, 100 complete control)
# Description: as §1, §2
# barley, winter = test: Test C postemergence; type: in vivo, Hordeum vulgare; settings: for Plant response rating (0 to 100), Barley: postemergence; for Plant response rating, Barley: Postemergence, scale 0 to 100 (0 no effect, 100 complete control)
# Description: as §1, §2
# foxtail, green = test: Test C postemergence; type: in vivo, Setaria viridis; settings: for Plant response rating (0 to 100), Foxtail, Green: postemergence; for Plant response rating, Foxtail, Green: Postemergence, scale 0 to 100 (0 no effect, 100 complete control)
# Description: as §1, §2
# surinam grass = test: Test C postemergence; type: in vivo, Brachiaria decumbens; settings: for Plant response rating, Surinam Grass: Postemergence, scale 0 to 100 (0 no effect, 100 complete control)
# Description: as §1
# as §2, with “Treated plants and controls were maintained in a greenhouse for 13 to 15 days, after which time all species were compared to controls and visually evaluated. Plant response ratings, summarized in Table C, are based on a scale of 0 to 100 where 0 is no effect and 100 is complete control. A dash (-) response means no test result.” left out
# canarygrass = test: Test C postemergence; type: in vivo, Phalaris minor; settings: for Plant response rating (0 to 100), Canarygrass: postemergence; for Plant response rating, Canarygrass: Postemergence, scale 0 to 100 (0 no effect, 100 complete control)
# Description: as §1, §2
# cocklebur = test: Test C postemergence; type: in vivo, Xanthium strumarium; settings: for Plant response rating (0 to 100), Cocklebur: postemergence; for Plant response rating, Cocklebur: Postemergence, scale 0 to 100 (0 no effect, 100 complete control)
# Description: as §1, §2
# bromegrass, downy = test: Test C postemergence; type: in vivo, Bromus tectorum; settings: for Plant response rating (0 to 100), Bromegrass, Downy: postemergence; for Plant response rating, Bromegrass, Downy: Postemergence, scale 0 to 100 (0 no effect, 100 complete control)
# Description: as §1, §2
# goosegrass = test: Test C postemergence; type: in vivo, Eleusine indica; settings: for Plant response rating (0 to 100), Goosegrass: postemergence; for Plant response rating, Goosegrass: Postemergence, scale 0 to 100 (0 no effect, 100 complete control)
# Description: as §1, §2
# deadnettle = test: Test C postemergence; type: in vivo, Lamium amplexicaule; settings: for Plant response rating (0 to 100), Deadnettle: postemergence; for Plant response rating, Deadnettle: Postemergence, scale 0 to 100 (0 no effect, 100 complete control)
# Description: as §1, §2
# windgrass = test: Test C postemergence; type: in vivo, Apera spica-venti; settings: for Plant response rating (0 to 100), Windgrass: postemergence; for Plant response rating, Windgrass: Postemergence, scale 0 to 100 (0 no effect, 100 complete control)
# Description: as §1, §2
# smartweed = test: Test E preemergence; type: in vivo, ladysthumb smartweed; settings: for Smartweed plant response rating: scale 0 to 100 (0 no effect, 100 complete control); for Plant response rating, Smartweed: scale 0 to 100, 0 no effect, 100 complete control
# Description: Seeds of plant species selected from corn (Zea mays), soybean (Glycine max), velvetleaf (Abutilon theophrasti), lambsquarters (Chenopodium album), wild poinsettia (Euphorbia heterophylla), palmer pigweed (Amaranthus palmeri), waterhemp (common waterhemp, Amaranthus rudis), surinam grass (Brachiaria decumbens), large (Lg) crabgrass (Digitaria sanguinalis), Brazilian crabgrass (Digitaria horizontalis), fall panicum (Panicum dichotomiflorum), giant foxtail (Setaria faberii), green foxtail (Setaria viridis), goosegrass (Eleusine indica), johnsongrass (Sorghum halepense), ragweed (common ragweed, Ambrosia elatior), barnyardgrass (Echinochloa crus-galli), sandbur (southern sandbur, Cenchrus echinatus), arrowleaf sida (Sida rhombifolia), Italian ryegrass (Lolium multiflorum), dayflower (Virginia (VA) dayflower, Commelina virginica), field bindweed (Convolvulus arvensis), morningglory (Ipomoea coccinea), nightshade (eastern black nightshade, Solanum ptycanthum), kochia (Kochia scoparia), yellow nutsedge (Cyperus esculentus), cocklebur (common cocklebur, Xanthium strumarium), smartweed (ladysthumb smartweed, and hairy beggarticks (Bidens pilosa), were planted into a silt loam soil and treated preemergence with test chemicals formulated in a non-phytotoxic solvent mixture which included a surfactant.
# At the same time, plants from these crop and weed species and also horseweed (Canada horseweed, Conyza canadensis), waterhemp_RES1, (ALS & Triazine resistant common waterhemp, Amaranthus rudis), and waterhemp_RES2, (ALS & HPPD resistant common waterhemp, Amaranthus rudis) were planted in pots containing Redi-Earth® planting medium (Scotts Company, 14111 Scottslawn Road, Marysville, Ohio 43041) comprising spaghnum peat moss, vermiculite, wetting agent and starter nutrients were treated with postemergence applications of test chemicals formulated in the same manner. Plants ranged in height from 2 to 18 cm for postemergence treatments (1- to 4-leaf stage). Treated plants and controls were maintained in a greenhouse for 14 to 21 days, after which time all species were compared to controls and visually evaluated. Plant response ratings, summarized in Table E, are based on a scale of 0 to 100 where 0 is no effect and 100 is complete control. A dash (-) response means no test result.
smiles,measurement,setting,value
"Clc1cnn(-c2ccccc2Oc2ncc(Br)cn2)c1 [Compound 5, 5-bromo-2-[2-(4-chloro-1H-pyrazol-1-yl)phenoxy]pyrimidine]","Plant response rating (0 to 100), Bermudagrass",bermudagrass; 125 g ai/ha,10
same,"Plant response rating (0 to 100), Bermudagrass",bermudagrass; 250 g ai/ha,35
same,"Plant response rating, Bermudagrass","bermudagrass; 31 g ai/ha, 13 to 15 days",0
same,"Plant response rating, Bermudagrass",bermudagrass; 62 g ai/ha,0
same,"Plant response rating (0 to 100), Cupgrass, Woolly","cupgrass, woolly; 125 g ai/ha",10
same,"Plant response rating (0 to 100), Cupgrass, Woolly","cupgrass, woolly; 250 g ai/ha",30
same,"Plant response rating, Cupgrass, Woolly","cupgrass, woolly; 31 g ai/ha, 13 to 15 days",0
same,"Plant response rating, Cupgrass, Woolly","cupgrass, woolly; 62 g ai/ha",10
same,"Plant response rating (0 to 100), Barley","barley, winter; 125 g ai/ha",5
same,"Plant response rating (0 to 100), Barley","barley, winter; 250 g ai/ha",10
same,"Plant response rating, Barley","barley, winter; 31 g ai/ha, 13 to 15 days",0
same,"Plant response rating, Barley","barley, winter; 62 g ai/ha",0
same,"Plant response rating (0 to 100), Foxtail, Green","foxtail, green; 125 g ai/ha",40
same,"Plant response rating (0 to 100), Foxtail, Green","foxtail, green; 250 g ai/ha",70
same,"Plant response rating, Foxtail, Green","foxtail, green; 31 g ai/ha, 13 to 15 days",0
same,"Plant response rating, Foxtail, Green","foxtail, green; 62 g ai/ha",40
same,"Plant response rating (0 to 100), Surinam Grass","surinam grass; 125 g ai/ha, postemergence",45
same,"Plant response rating, Surinam Grass","surinam grass; 31 g ai/ha, 13 to 15 days",10
same,"Plant response rating, Surinam Grass",surinam grass; 62 g ai/ha,35
same,"Plant response rating (0 to 100), Canarygrass",canarygrass; 125 g ai/ha,30
same,"Plant response rating (0 to 100), Canarygrass",canarygrass; 250 g ai/ha,40
same,"Plant response rating, Canarygrass","canarygrass; 31 g ai/ha, 13 to 15 days",5
same,"Plant response rating, Canarygrass",canarygrass; 62 g ai/ha,10
same,"Plant response rating (0 to 100), Cocklebur",cocklebur; 125 g ai/ha,50
same,"Plant response rating (0 to 100), Cocklebur",cocklebur; 250 g ai/ha,65
same,"Plant response rating, Cocklebur","cocklebur; 31 g ai/ha, 13 to 15 days",25
same,"Plant response rating, Cocklebur",cocklebur; 62 g ai/ha,50
same,"Plant response rating (0 to 100), Bromegrass, Downy","bromegrass, downy; 125 g ai/ha",5
same,"Plant response rating (0 to 100), Bromegrass, Downy","bromegrass, downy; 250 g ai/ha",10
same,"Plant response rating, Bromegrass, Downy","bromegrass, downy; 31 g ai/ha, 13 to 15 days",5
same,"Plant response rating, Bromegrass, Downy","bromegrass, downy; 62 g ai/ha",5
same,"Plant response rating (0 to 100), Goosegrass",goosegrass; 125 g ai/ha,10
same,"Plant response rating (0 to 100), Goosegrass",goosegrass; 250 g ai/ha,15
same,"Plant response rating, Goosegrass","goosegrass; 31 g ai/ha, 13 to 15 days",0
same,"Plant response rating, Goosegrass",goosegrass; 62 g ai/ha,5
same,"Plant response rating (0 to 100), Deadnettle",deadnettle; 125 g ai/ha,90
same,"Plant response rating (0 to 100), Deadnettle",deadnettle; 250 g ai/ha,90
same,"Plant response rating, Deadnettle","deadnettle; 31 g ai/ha, 13 to 15 days",50
same,"Plant response rating, Deadnettle",deadnettle; 62 g ai/ha,50
same,"Plant response rating (0 to 100), Windgrass",windgrass; 125 g ai/ha,60
same,"Plant response rating (0 to 100), Windgrass",windgrass; 250 g ai/ha,85
same,"Plant response rating, Windgrass","windgrass; 31 g ai/ha, 13 to 15 days",10
same,"Plant response rating, Windgrass",windgrass; 62 g ai/ha,40
N#Cc1cccc(Oc2ncc(Cl)cn2)c1-n1cc(Cl)cn1 [Compound 72],Smartweed plant response rating,smartweed; 16 g ai/ha,0
same,Smartweed plant response rating,smartweed; 31 g ai/ha,0
same,Smartweed plant response rating,smartweed; 62 g ai/ha,0
same,"Plant response rating, Smartweed",smartweed; 125 g ai/ha,90
same,"Plant response rating, Smartweed",smartweed; 250 g ai/ha,98
